Source: ChEMBL document CHEMBL4673243, “Discovery of 9-Cyclopropylethynyl-2-((S)-1-[1,4]dioxan-2-ylmethoxy)-6,7-dihydropyrimido[6,1-a]isoquinolin-4-one (GLPG1205), a Unique GPR84 Negative Allosteric Modulator Undergoing Evaluation in a Phase II Clinical Trial” (J Med Chem, 2020)
Values after ≈ are worked out from the molar mass of the structure shown.

How the values were obtained:
[1] = in vivo; details: male, Sprague-Dawley, rat, iv, 0.5 mg/kg
[2] = biological target: Cytochrome P450 2D6 (Homo sapiens) (UniProt P10635)
Chain of Cytochrome P450 2D6 (Homo sapiens) (P10635 whole entry, looked up): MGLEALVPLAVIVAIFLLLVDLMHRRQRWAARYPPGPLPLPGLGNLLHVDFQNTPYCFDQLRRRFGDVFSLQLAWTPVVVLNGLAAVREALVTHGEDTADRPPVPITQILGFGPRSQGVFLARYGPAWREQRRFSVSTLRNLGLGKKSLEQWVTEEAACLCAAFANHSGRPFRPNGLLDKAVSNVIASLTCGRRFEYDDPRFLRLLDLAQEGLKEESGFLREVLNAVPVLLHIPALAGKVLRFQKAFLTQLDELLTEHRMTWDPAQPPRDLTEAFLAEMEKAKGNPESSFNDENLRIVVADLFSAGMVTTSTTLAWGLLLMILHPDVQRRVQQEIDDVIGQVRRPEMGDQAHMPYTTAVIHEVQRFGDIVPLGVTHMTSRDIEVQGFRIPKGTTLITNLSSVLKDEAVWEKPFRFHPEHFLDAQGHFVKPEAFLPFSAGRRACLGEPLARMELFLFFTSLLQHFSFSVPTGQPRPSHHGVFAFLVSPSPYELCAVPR

[3] = Volume of distribution at steady state in CD1 mouse at 1 mg/kg, iv administered as single bolus dose using PEG-200/saline formulation measured after 24 hrs by LC-MS/MS analysis; details: in vivo
[4] = in vivo; details: Beagle, dog, iv, 0.5 mg/kg
[5] = in vivo; details: Beagle, dog, po
Description: Half life in Beagle dog at 2.5 mg/kg, po administered as single dose via gavage by LC-MS/MS analysis

[6] = Thermodynamic solubility of compound at pH 3; details: buffer
[7] = biological target: Cytochrome P450 2C19 (Homo sapiens, UniProt P33261); test: Inhibition of CYP2C19 in human liver microsomes using probe substrate and in presence of co-factor preincubated for 20 mins followed by substrate addition by LC-MS/MS analysis
Chain of Cytochrome P450 2C19 (P33261 whole entry): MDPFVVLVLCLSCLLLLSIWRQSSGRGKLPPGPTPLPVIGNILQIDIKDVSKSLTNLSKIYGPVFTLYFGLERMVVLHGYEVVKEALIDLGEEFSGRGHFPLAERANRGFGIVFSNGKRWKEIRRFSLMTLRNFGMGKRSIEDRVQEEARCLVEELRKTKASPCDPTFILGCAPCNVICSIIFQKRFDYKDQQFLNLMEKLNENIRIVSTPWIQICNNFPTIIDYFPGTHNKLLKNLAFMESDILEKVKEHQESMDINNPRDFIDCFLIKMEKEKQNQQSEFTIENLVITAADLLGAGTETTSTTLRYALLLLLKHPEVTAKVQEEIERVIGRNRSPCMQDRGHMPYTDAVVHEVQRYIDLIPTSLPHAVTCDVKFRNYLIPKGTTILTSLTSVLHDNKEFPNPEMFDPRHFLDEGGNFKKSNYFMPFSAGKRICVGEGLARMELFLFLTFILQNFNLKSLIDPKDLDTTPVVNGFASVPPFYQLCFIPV

[8] = Apparent permeability from apical to basolateral in human Caco2 cells at 10 uM measured after 60 mins by lucifer yellow dye based LC-MS/MS analysis; details: Caco-2
[9] = in vitro; details: human, cryopreserved hepatocytes
[10] = in vivo; details: CD1, mouse, po, 5 mg/kg
Description: Half-life in CD1 mouse at 5 mg/kg, po administered as single esophageal gavage dose post 12 hr fasting using PEG-200/water formulation measured after 24 hrs by LC-MS/MS analysis

[11] = in vivo; details: CD1, mouse, po, 5 mg/kg; remark: listed apart in the source
[12] = in vitro; details: dog, cryopreserved hepatocytes
[13] = in vivo; details: Beagle, dog, po; remark: listed apart in the source
[14] = in vivo; details: Beagle, dog, po; remark: listed apart in the source
[15] = in vivo; details: Balb/c, mouse, plasma, po, 10 mg/kg
[16] = Half-life in male Sprague-Dawley rat at 0.5 mg/kg, iv administered as single bolus dose using PEG-200/NaCl formulation measured after 24 hrs by LC-MS/MS analysis; details: in vivo
[17] = Plasma protein binding in human at 5 uM measured after 4 hrs by LC-MS/MS analysis
[18] = Half-life in plasma of Balb/c mouse model of DSS-induced colitis at 10 mg/kg, po administered using PEG-200/water formulation starting from day 1 to 11 measured by LC-MS analysis
[19] = in vivo; details: CD1, mouse, po, 5 mg/kg; remark: listed apart in the source
[20] = in vitro; details: human, liver microsomes
[21] = in vitro; details: mouse, liver microsomes
[22] = in vivo; details: Balb/c, mouse, plasma, po, 3 mg/kg
[23] = Plasma protein binding in rat at 5 uM measured after 4 hrs by LC-MS/MS analysis
[24] = biological target: T1, Cytochrome P450 3A4 (Homo sapiens, UniProt P08684); test: Time-dependent inhibition of CYP3A4 in human liver microsomes using midazolam as substrate and in presence of co-factor by LC-MS/MS analysis
T1 sequence (P08684 whole entry): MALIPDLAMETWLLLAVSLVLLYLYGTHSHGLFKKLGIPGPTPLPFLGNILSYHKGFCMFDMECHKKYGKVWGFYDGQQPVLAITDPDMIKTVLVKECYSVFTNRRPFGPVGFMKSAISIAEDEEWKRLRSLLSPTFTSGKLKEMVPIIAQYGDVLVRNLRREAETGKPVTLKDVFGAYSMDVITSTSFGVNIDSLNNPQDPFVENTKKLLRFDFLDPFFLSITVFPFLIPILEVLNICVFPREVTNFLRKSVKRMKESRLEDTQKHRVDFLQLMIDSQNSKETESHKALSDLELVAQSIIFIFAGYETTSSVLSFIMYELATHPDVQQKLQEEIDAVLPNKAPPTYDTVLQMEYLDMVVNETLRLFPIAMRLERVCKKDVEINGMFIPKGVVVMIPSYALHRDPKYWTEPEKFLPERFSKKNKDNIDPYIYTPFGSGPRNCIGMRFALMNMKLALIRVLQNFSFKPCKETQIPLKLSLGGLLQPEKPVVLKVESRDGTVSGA

[25] = in vivo; details: Balb/c, mouse, plasma, po, 3 mg/kg; remark: listed apart in the source
[26] = in vivo; details: male, Sprague-Dawley, rat, po
Description: Half-life in male Sprague-Dawley rat at 2.5 mg/kg, po administered as single gavage dose using PEG-200/water formulation measured after 24 hrs by LC-MS/MS analysis

[27] = biological target: T1, Cytochrome P450 3A4; test: Inhibition of CYP3A4 in human liver microsomes using midazolam as substrate and in presence of co-factor preincubated for 20 mins followed by substrate addition by LC-MS/MS analysis
[28] = Volume of distribution at steady state in Beagle dog at 0.5 mg/kg, iv administered as 10 mins infusion via catheter by LC-MS/MS analysis; details: in vivo
[29] = Clearance in CD1 mouse at 1 mg/kg, iv administered as single bolus dose using PEG-200/saline formulation measured after 24 hrs by LC-MS/MS analysis; details: in vivo
[30] = in vivo; details: Balb/cj, mouse, plasma, po, 10 mg/kg
[31] = tested on: Neutrophil; test: Inhibition of dog neutrophil cell migration; details: Canis lupus familiaris
[32] = in vivo; details: Balb/c, mouse, plasma, po, 10 mg/kg; remark: listed apart in the source
[33] = Volume of distribution at steady state in male Sprague-Dawley rat at 0.5 mg/kg, iv administered as single bolus dose using PEG-200/NaCl formulation measured after 24 hrs by LC-MS/MS analysis; details: in vivo
[34] = biological target: T1, Cytochrome P450 3A4; test: Time-dependent inhibition of CYP3A4 in human liver microsomes using testosterone as substrate and in presence of co-factor by LC-MS/MS analysis
[35] = biological target: T2, Cytochrome P450 1A2 (Homo sapiens, UniProt P05177); test: Inhibition of CYP1A2 in human liver microsomes using probe substrate and in presence of co-factor preincubated for 20 mins followed by substrate addition by LC-MS/MS analysis
T2 sequence (P05177 whole entry): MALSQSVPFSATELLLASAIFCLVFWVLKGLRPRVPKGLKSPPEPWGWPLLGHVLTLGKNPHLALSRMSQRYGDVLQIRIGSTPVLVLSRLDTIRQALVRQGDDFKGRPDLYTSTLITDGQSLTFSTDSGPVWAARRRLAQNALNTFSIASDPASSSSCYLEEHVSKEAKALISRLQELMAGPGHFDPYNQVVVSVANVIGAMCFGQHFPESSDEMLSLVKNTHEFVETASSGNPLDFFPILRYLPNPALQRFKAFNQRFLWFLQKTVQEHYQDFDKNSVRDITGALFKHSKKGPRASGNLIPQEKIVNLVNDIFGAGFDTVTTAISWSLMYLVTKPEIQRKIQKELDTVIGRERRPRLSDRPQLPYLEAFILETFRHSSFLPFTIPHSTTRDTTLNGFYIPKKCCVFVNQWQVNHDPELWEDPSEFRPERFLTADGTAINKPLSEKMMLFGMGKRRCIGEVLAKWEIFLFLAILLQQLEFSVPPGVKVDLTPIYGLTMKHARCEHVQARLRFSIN

[36] = in vitro; details: dog, cryopreserved hepatocytes; remark: listed apart in the source
[37] = Plasma protein binding in mouse at 5 uM measured after 4 hrs by LC-MS/MS analysis
[38] = physchem; details: aqueous solution with 2% DMSO, pH 7.4
[39] = in vivo; details: Beagle, dog, po; remark: listed apart in the source
[40] = in vivo; details: CD1, mouse, po, 5 mg/kg; remark: listed apart in the source
[41] = Clearance in male Sprague-Dawley rat at 0.5 mg/kg, iv administered as single bolus dose using PEG-200/NaCl formulation measured after 24 hrs by LC-MS/MS analysis; details: in vivo
[42] = in vitro; details: rat, liver microsomes

O=c1nc(OC[C@@H]2COCCO2)cc2n1CCc1cc(C#CC3CC3)ccc1-2 [GLPG-1205]
AUC(0-t) at 24 h [1]: 710 ng·h/mL | IC50 [2]: > 100 µM | Vd at 24 h [3]: 0.6 L/kg | AUC(0-t) at […] [4]: 410 ng·h/mL | half-life [5]: 120 min | solubility thermodynamic [6]: 12.6 µg/mL (≈ 33.3 µM) | IC50 [7]: > 100 µM | Papp A→B at 1 h, 10 µM [8]: 41.9 ×10⁻⁶ cm/s | CLint scaled at 1 µM [9]: < 21.3 mL/min/kg | half-life at 24 h [10]: 114 min | bioavailability at 24 h [11]: > 100% | half-life at 1 µM [12]: > 200 min | AUC(0-t) at 24 h [13]: 2230 ng·h/mL | bioavailability [14]: > 100% | AUC(0-t) at 24 h [15]: 50400 ng·h/mL | half-life at 24 h [16]: 60 min | fraction unbound at 4 h, 5 µM [17]: 0.028 | half-life [18]: 138 min | Cmax at 24 h [19]: 4590 ng/mL | CLint scaled at 0.5 h, 1 µM [20]: < 19.3 mL/min/kg | CLint scaled at 0.5 h, 1 µM [21]: 133 mL/min/kg | Cmax [22]: 1840 ng/mL | fraction unbound at 4 h, 5 µM [23]: 0.023 | IC50 [24]: > 50 µM | Tmax [25]: 1 h | half-life at 24 h [26]: 78 min | IC50 [27]: > 50 µM | Vd at […] [28]: 2 L/kg | clearance at 24 h [29]: 15 mL/min/kg | Cmax [30]: 8140 ng/mL | IC50 [31]: 75 nM | Tmax [32]: 1 h | Vd at 24 h [33]: 1.2 L/kg | IC50 [34]: > 50 µM | IC50 [35]: > 100 µM | CLint scaled at 1 µM [36]: < 24.2 mL/min/kg | fraction unbound at 4 h, 5 µM [37]: 0.022 | solubility [38]: 113 µg/mL (≈ 299 µM) | Tmax [39]: 30 min | Tmax at 24 h [40]: 30 min | clearance at 24 h [41]: 11.7 mL/min/kg | CLint scaled at 0.5 h, 1 µM [42]: 66.7 mL/min/kg
